“And” between values parts separate entries of the source, which are not always exact repeats. Identical values can stand only once. Counter-ions that a name gives are not always drawn. Like-named read-outs stand apart in the source and are kept apart here.
What was measured:
[1] = test system: P388 mouse leukemia cells; assay: Effect against P388 mouse leukemia cell (in vitro test); assay type: cell-based
Method: (1) Effect against P388 mouse leukemia cell (in vitro test)
P388 leukemia cells have been subcultured in abdominal cavity of DBA/2 mouse. […] A suspension of 5×10^4 cells/ml containing a test compound is prepared and is cultured in a wet atmosphere containing 5% CO2 at 37° C. for 48 hours.
Number of cells before and after culturing is counted by coulter counter. Proliferative ratio is defined as ratio of the increase in cells after proliferation for 48 hours to an increase in cells cultured in a suspension containing no test compound. Inhibition ratio (IR) is defined as follows: […]
1--(proliferative ratio).
In other words, [formula] where C^treated : number of cells after culturing for 48 hours in the presence of a treated compound
C^non : number of cells after culturing for 48 hours in the absence of a test compound
Co : number of cells when culturing is initiated.

[2] = test system: P388 mouse leukemia cells; assay: Effect against survival time of mouse transplanted with P388 mouse leukemia cells (in vivo test, intraperitoneal administration); parameters: species or system mouse (CDF1); details: intraperitoneally, first and fifth days
From the text: (2) Effect against survival time of mouse transplanted with P388 mouse leukemia cells (in vivo test, intraperitoneal administration)
(§1) Tumor: P388 mouse leukemia.
(§2) Animals: CDF1 (BALB/C×DBA/2) mouse .male.5 weeks breeding, one group: 6 mice.
(§3) Number of cells transplanted: 10^6 /mouse, intraperitoneal administration.
Dosage: Test compound administered twice, i.e. the first and fifth days, intraperitoneally. Test compound hardly soluble or insoluble in water is applied in a solution or a suspension form by use of Tween 80.
(§4) Evaluation: Increase life span (ILS) is calculated on the basis of median survival times (T) and (C) of treated groups and controls, repsctively: [formula] (3) Effect against survival times of mouse transplanted with P388 mouse leukemia cells (in vivo test; intravenous or per os administration)

[3] = test system: P388 mouse leukemia cells; assay: Effect against survival times of mouse transplanted with P388 mouse leukemia cells (in vivo test; intravenous); parameters: species or system mouse (CDF1); details: once, first day
Method: as §1, §2, §3, §4
(§5) Similar to (2), but a test compound administered once, i.e., only the first day, intravenously or orally.

[4] = test system: P388 mouse leukemia cells; assay: Effect against survival times of mouse transplanted with P388 mouse leukemia cells (in vivo test; per os administration); parameters: species or system mouse (CDF1); details: po, once, first day
Method: as §1, §2, §3, §4, §5

[5] = Toxicity test (maximum tolerated dose); details: mouse, in vivo; single application; BALB/C mice, ten a group; largest amount where no death is seen
From the text: The largest amount where no death of mice is seen is defined as maximum tolerated dose.

[6] = P388, 1 γ/ml, 48 hours, read-out: Inhibition ratio (IR)
[7] = P388, 10^-1 γ/ml, 48 hours, read-out: Inhibition ratio (IR)
[8] = P388, 10 γ/ml, 48 hours, read-out: Inhibition ratio (IR)
[9] = P388, 48 h, read-out: Inhibition ratio (IR), 1 γ/ml
[10] = P388, 48 h, read-out: Inhibition ratio (IR), 10^-1 γ/ml
[11] = P388, 48 h, read-out: Inhibition ratio (IR), 10 γ/ml

CC(=O)[C@]1(N)Cc2c(O)c3c(c(O)c2[C@@H](OC2CCCCO2)C1)C(=O)c1ccccc1C3=O (single isomer, unassigned) [Example 10-A, 7-0-tetrahydropyranyl-9α-amino-9β-acetyl-7,8,9,10-tetrahydro-6,7α,11-trihydroxy-5,12-naphthacenedione]
inhibition at 1 µg/mL [1, 6]: 94.4%
inhibition at 0.1 µg/mL [1, 7]: 94.6%
inhibition at 10 µg/mL [1, 8]: 89%
Increase life span (ILS) ([2]; 6.25 mg/kg): 25%
Increase life span (ILS) ([2]; 12.5 mg/kg): 77%
Increase life span (ILS) ([2]; 25 mg/kg): 286%

CC(=O)O[C@H]1C[C@H](O[C@H]2C[C@](N)(C(C)=O)Cc3c(O)c4c(c(O)c32)C(=O)c2ccccc2C4=O)OC[C@H]1OC(C)=O [11 (hydrochloride), d-7α-[(2-deoxy-3,4-di-0-acetyl-β-D-erythro-pentapyranosyl)oxy]-9α-amino-9β-acetyl-7,8,9,10-tetrahydro-6,11-dihydroxy-5,12-naphthacenedione]
ILS ([3]; 10 mg/kg): 35%
ILS ([3]; 20 mg/kg): 67%
ILS ([3]; 40 mg/kg): -45%
Toxic Death ([3]; 40 mg/kg): 6/6
inhibition at 1 µg/mL [1, 6]: 97.9%
inhibition at 0.1 µg/mL [1, 7]: 1.9%
inhibition at 10 µg/mL [1, 8]: 100%
ILS ([4]; 17.5 mg/kg): 40%
ILS ([4]; 35 mg/kg): 63%
ILS ([4]; 70 mg/kg): -42%
Toxic Death ([4]; 70 mg/kg): 6/6
Increase life span (ILS) ([2]; 6.25 mg/kg): 37%
Increase life span (ILS) ([2]; 12.5 mg/kg): 123%
Increase life span (ILS) ([2]; 25 mg/kg): 280%
MTD [5]: 40 mg/kg

CC(=O)[C@]1(N)Cc2c(O)c3c(c(O)c2[C@@H](O[C@H]2C[C@H](O)[C@H](O)CO2)C1)C(=O)c1ccccc1C3=O [12 (hydrochloride), d-7α-[(2-deoxy-β-D-erythro-pentapyranosyl)oxy]-9αamino-9β-acetyl-7,8,9,10-tetrahydro-6,11-dihydroxy-5,12-naphthacenedione]
ILS ([3]; 10 mg/kg): 32%
ILS ([3]; 20 mg/kg): 60%
ILS ([3]; 40 mg/kg): -43%
Toxic Death ([3]; 40 mg/kg): 6/6
inhibition at 1 µg/mL [1, 9]: 83.8%
inhibition at 0.1 µg/mL [1, 10]: 27.5%
inhibition at 10 µg/mL [1, 11]: 85%
ILS ([4]; 17.5 mg/kg): 31%
ILS ([4]; 35 mg/kg): 50%
ILS ([4]; 70 mg/kg): 86%
MTD [5]: 32 mg/kg

CC[C@@]1(O)C[C@H](O[C@H]2C[C@H](N(C)C)[C@H](O[C@H]3C[C@H](O)[C@H](O[C@H]4CCC(=O)[C@H](C)O4)[C@H](C)O3)[C@H](C)O2)c2c(cc3c(c2O)C(=O)c2c(O)cccc2C3=O)[C@H]1C(=O)OC [ACM-A, AclacinomycinA, reference compound]
ILS ([4]; 10.7 mg/kg): 11%
ILS ([4]; 21.5 mg/kg): 25%
ILS ([4]; 43 mg/kg): 37%

COc1cccc2c1C(=O)c1c(O)c3c(c(O)c1C2=O)C[C@@](O)(C(=O)CO)C[C@@H]3O[C@H]1C[C@H](N)[C@H](O)[C@H](C)O1 [ADR, Adriamycin, reference compound]
ILS ([3]; 3.75 mg/kg): 21%
ILS ([3]; 7.5 mg/kg): 47%
ILS ([3]; 15 mg/kg): 83%
inhibition at 1 µg/mL [1, 9]: 85.9%
inhibition at 0.1 µg/mL [1, 10]: 85%
inhibition at 0.01 µg/mL ([1]; P388, 48 h, read-out: Inhibition ratio (IR), 10^-2 γ/ml): 69.2%
inhibition at 10 µg/mL [1, 11]: 90.6%
Increase life span (ILS) ([2]; 1 mg/kg, positive control): 58% and 78% and 57%
Increase life span (ILS) ([2]; 2 mg/kg, positive control): 90% and 84%
Increase life span (ILS) ([2]; 4 mg/kg, positive control): 133%
MTD [5]: 12.5 mg/kg

CC(=O)O[C@@H]1[C@H](C)O[C@@H](O[C@H]2C[C@](N)(C(C)=O)Cc3c(O)c4c(c(O)c32)C(=O)c2ccccc2C4=O)C[C@@H]1OC(C)=O [Example 1, d-7α-[(3,4-di-0-acetyl-2,6-dideoxy-α-L-lyxo-hexopyranosyl)oxy]-9α-amino-9β-acetyl-7,8,9,10-tetrahydro-6,11-dihydroxy-5,12-naphthacenedione]
inhibition at 1 µg/mL [1, 6]: 84.1%
inhibition at 0.1 µg/mL [1, 7]: 32.4%
inhibition at 10 µg/mL [1, 8]: 82.7%
Increase life span (ILS) ([2]; 6.25 mg/kg): 42%
Increase life span (ILS) ([2]; 12.5 mg/kg): 86%
Increase life span (ILS) ([2]; 25 mg/kg): 152%

CC(=O)[C@]1(N)Cc2c(O)c3c(c(O)c2[C@@H](O[C@H]2C[C@H](O)[C@H](O)[C@H](C)O2)C1)C(=O)c1ccccc1C3=O [Example 2, d-7α-[(2,6-dideoxy-α-L-lyxo-lexopyranosyl)oxy]-9α-amino-9β-acetyl-7,8,9,10-tetrahydro-6,11-dihydroxy-5,12-naphthacenedione]
inhibition at 1 µg/mL [1, 6]: 84.5%
inhibition at 0.1 µg/mL [1, 7]: 44.1%
inhibition at 10 µg/mL [1, 8]: 89.9%
Increase life span (ILS) ([2]; 6.25 mg/kg): 135%

CC(=O)[C@]1(N)Cc2c(O)c3c(c(O)c2[C@@H](O[C@H]2C[C@H](N)[C@H](O)[C@H](C)O2)C1)C(=O)c1c(O)cccc1C3=O [Example 25 (dihydrochloride), d-7α-[(2,3,6-trideoxy-3-amino-α-L-lyxo-hexopyranosyl)oxy]-9α-amino-9β-acetyl-4,6,11-trihydroxy-7,8,9,10-tetrahydro-5,12-naphthacenedione]
inhibition at 1 µg/mL [1, 6]: 95.7%
inhibition at 0.1 µg/mL [1, 7]: 89%
inhibition at 10 µg/mL [1, 8]: 99.4%

CC(O)[C@]1(N)Cc2c(O)c3c(c(O)c2[C@@H](OC2CCCCO2)C1)C(=O)c1ccccc1C3=O (stereo partly drawn) [Example 29, 7-0-tetrahydropyranyl-9α-amino-9β-(1-hydroxyethyl)-7,8,9,10-tetrahydro-6,7α,11-trihydroxy-5,12-naphthacenedione]
inhibition at 1 µg/mL [1, 6]: 92.9%
inhibition at 0.1 µg/mL [1, 7]: 93.5%
inhibition at 0.01 µg/mL ([1]; P388, 10^-2 γ/ml, 48 hours, read-out: Inhibition ratio (IR)): 40.1%
inhibition at 10 µg/mL [1, 8]: 94.1%
Increase life span (ILS) ([2]; 3.13 mg/kg): 66%
Increase life span (ILS) ([2]; 6.25 mg/kg): 126%
